In the assay the target is T1, Isoform 2 of Nuclear receptor ROR-alpha (Alpha-2) (Homo sapiens, UniProt P35398).
T1 sequence (P35398 whole entry): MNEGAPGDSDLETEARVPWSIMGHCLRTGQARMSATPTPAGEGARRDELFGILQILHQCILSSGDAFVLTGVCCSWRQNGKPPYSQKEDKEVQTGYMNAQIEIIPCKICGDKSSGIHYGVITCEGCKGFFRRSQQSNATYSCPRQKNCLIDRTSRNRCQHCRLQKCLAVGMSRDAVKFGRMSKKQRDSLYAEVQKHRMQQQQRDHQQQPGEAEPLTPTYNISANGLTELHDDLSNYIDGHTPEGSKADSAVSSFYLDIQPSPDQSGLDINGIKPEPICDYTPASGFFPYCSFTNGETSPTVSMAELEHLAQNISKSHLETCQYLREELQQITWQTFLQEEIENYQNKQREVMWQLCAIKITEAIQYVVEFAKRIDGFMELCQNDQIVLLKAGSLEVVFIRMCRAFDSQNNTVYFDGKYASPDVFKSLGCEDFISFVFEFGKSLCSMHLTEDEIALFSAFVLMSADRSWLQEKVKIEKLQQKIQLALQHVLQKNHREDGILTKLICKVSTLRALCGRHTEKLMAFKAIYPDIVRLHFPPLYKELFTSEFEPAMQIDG
Nature of the assay: RORA Gal4 reporter activation in CHO-K1 cells, dose response, counter-screen for SF-1 activator project, cell-based, Gal4-RORA LBD, luciferase luminescence (AID 675). For orientation: A counterscreen serves to expose hits that act by an unwanted route or on another target.

Setting [1] is: inactive by the depositor's call.

These results are taken from BindingDB's records for doi:10.7270/Q24T6GSH (The Scripps Research Institute Molecular Screening Center, 2007).

Some results are limits rather than exact numbers.

What is called EC50 is the concentration giving half of the maximal effect. `CCOC(=O)CSc1nc2ccccc2c(=O)n1NC(=O)c1ccccc1` [2-[(3-benzamido-4-keto-quinazolin-2-yl)thio]acetic acid ethyl ester] registered an EC50 of 933 nM.
Regarding `CC1(C)CC(=O)C(=CNc2ccccc2)C(=O)C1` [SMR000054233], the EC50 is greater than 99000 nM.
On the same count and under the same terms, to `COc1cccc(C(=O)Nc2cccc(-c3nnc(-c4ccccc4)o3)c2)c1` [3-methoxy-N-[3-(5-phenyl-1,3,4-oxadiazol-2-yl)phenyl]benzamide] belongs 1730 nM; to `COc1ccc2nc(Nc3nc(C)c(C(C)=O)s3)sc2c1` [1-[2-[(6-methoxy-1,3-benzothiazol-2-yl)amino]-4-methyl-1,3-thiazol-5-yl]ethanone], greater than 1220 nM.
`O=C(Nc1nccs1)c1ccc(COc2ccc(F)cc2)o1` [5-[(4-fluoranylphenoxy)methyl]-N-(1,3-thiazol-2-yl)furan-2-carboxamide] gave an EC50 of 4710 nM.
Still for that read-out and setting: to `CCc1nnc(NC(=O)CSc2nc(C)c3c(c2C#N)CCCC3)s1` [2-[(4-cyano-1-methyl-5,6,7,8-tetrahydroisoquinolin-3-yl)sulfanyl]-N-(5-ethyl-1,3,4-thiadiazol-2-yl)acetamide] belongs 1230 nM; to `COc1ccc2c(c1OC)C(=O)N1c3ccccc3SC21` (stereo unspecified) [1,2-dimethoxy-4bH-isoindolo[1,2-b][1,3]benzothiazol-11-one], 766 nM; to `Cc1ccc(C(=O)Nc2nnc(-c3cccs3)s2)cc1C` [3,4-dimethyl-N-(5-thiophen-2-yl-1,3,4-thiadiazol-2-yl)benzamide], 786 nM.
On the same count and under the same terms, to `O=C(COc1ncnc2ccccc12)c1ccc2c(c1)OCCO2` [1-(2,3-dihydro-1,4-benzodioxin-6-yl)-2-(4-quinazolinyloxy)ethanone] belongs 615 nM.
`Cc1cc(C(=O)OCC(=O)N2CCc3ccccc32)c(C)o1` [2,5-dimethyl-3-furancarboxylic acid [2-(2,3-dihydroindol-1-yl)-2-oxoethyl] ester] displayed an EC50 of 897 nM.
As for `CC(C)(CC(=O)O)Cc1nc(-c2ccc(Cl)cc2)no1` [4-[3-(4-chlorophenyl)-1,2,4-oxadiazol-5-yl]-3,3-dimethyl-butanoic acid], the EC50 is greater than 11000 nM.
`CCN(CC)c1ccc(-n2cc3c(=O)n(C)c(=O)n(C)c3c2)cc1` [6-(4-Diethylamino-phenyl)-1,3-dimethyl-1,6-dihydro-pyrrolo[3,4-d]pyrimidine-2,4-dione] had an EC50 under setting [1] of 12500 nM.
`Cc1cnc(NC(=O)CSc2nnc(-c3ccccc3)o2)s1` [MLS000077990]: the response was half-maximal at 4140 nM (EC50).
`CN(C)C=Nc1ncnc2c1cnn2-c1ccc(C(F)(F)F)cn1` [MLS000087855]: the EC50 was greater than 99000 nM.
As to `COCC(C)NC(=O)c1noc2c1CCc1cc(OC)ccc1-2` (stereo unspecified) [7-methoxy-N-(1-methoxypropan-2-yl)-4,5-dihydrobenzo[g][1,2]benzoxazole-3-carboxamide], the response was half-maximal at 1270 nM (EC50).
`CCCc1cc(C(=O)Nc2ccccc2SC)no1` [MLS000116378] showed an EC50 of 9170 nM.
On to `O=C(NCc1ccco1)c1cc2c(s1)CCCCC2` [MLS000065859], for which the EC50 is greater than 1220 nM.
With `Clc1ccc(-n2ncc3c(NCc4ccccn4)ncnc32)cc1` [1-(4-chlorophenyl)-N-(2-pyridinylmethyl)-4-pyrazolo[3,4-d]pyrimidinamine], the EC50 was 2290 nM.
For `Nn1c(SCC(=O)Nc2ccc(F)cc2F)nnc1-c1cccnc1` [2-[(4-amino-5-pyridin-3-yl-1,2,4-triazol-3-yl)sulfanyl]-N-(2,4-difluorophenyl)acetamide], the EC50 came to 6790 nM.
`Cc1csc2nc(CSc3nc4ccccc4o3)cn12` [2-[(3-methyl-6-imidazo[2,1-b]thiazolyl)methylthio]-1,3-benzoxazole] gave an EC50 of 3920 nM.
Same read-out and setting: then `CC(=O)c1c(C)[nH]c(C(=O)Nc2ccc3c(c2)OCCO3)c1C`, with 400 nM; and `O=C(Nc1ccc(-c2cn3ccsc3n2)cc1)C1CC1` [MLS000053249], with 653 nM; and `O=C(Nc1ccc(CN2CCOCC2)cc1)c1cc2ccccc2o1` [MLS000062478], with 480 nM.
`Fc1ccc2nc(Nc3nc4c(s3)CCCC4)sc2c1` [(6-fluoro-1,3-benzothiazol-2-yl)-(4,5,6,7-tetrahydro-1,3-benzothiazol-2-yl)amine] showed an EC50 of 639 nM.
For the molecule `CCCn1c(C)cc(C(=O)COc2ncnc3sccc23)c1C` [1-(2,5-dimethyl-1-propyl-3-pyrrolyl)-2-(4-thieno[2,3-d]pyrimidinyloxy)ethanone], it took 1990 nM to reach a half-maximal effect (EC50).
`c1ccc2nc3c(nc2c1)c1ccccc1n3CCN1CCOCC1` [4-(2-indolo[3,2-b]quinoxalin-6-ylethyl)morpholine]: the midpoint of the response under setting [1], the EC50, lay at 11300 nM.
In the case of `COc1cccc2c(O)c(C(=O)NCc3cccs3)cnc12` [4-Hydroxy-8-methoxy-quinoline-3-carboxylic acid (thiophen-2-ylmethyl)-amide], the EC50 was 3120 nM.
Take `CC(=O)c1cccc(NC(=O)c2cnn3ccccc23)c1` [MLS000118777]: the EC50 came out at 1220 nM.
`COc1ccc(CCC(=O)Nc2ccc(-c3noc(-c4ccc(OC)c(OC)c4)n3)cc2)cc1` [MLS000049572] displayed an EC50 of 2460 nM.
In turn, `COC(=O)CSc1nc2cc(C)ccc2cc1C#N` [(3-Cyano-7-methyl-quinolin-2-ylsulfanyl)-acetic acid methyl ester] showed a 50% effective concentration (EC50) greater than 1220 nM.
`CC(C)(C)n1ncc2c(=O)n(CC(=O)NCc3ccccc3Cl)cnc21` [2-(1-tert-butyl-4-keto-pyrazolo[3,4-d]pyrimidin-5-yl)-N-(2-chlorobenzyl)acetamide]: the EC50 was greater than 136 nM.
In the case of `CCOC(=O)CSc1nc(-c2ccncc2)ccc1C#N` [2-[(3-cyano-6-pyridin-4-yl-2-pyridinyl)thio]acetic acid ethyl ester], a half-maximal effect (EC50) was put at 1710 nM.
Molecule `COc1ccccc1Nc1nc2ccccc2[nH]1` [N-(2-methoxyphenyl)-1H-benzimidazol-2-amine] displayed an EC50 of 1620 nM.
As for `COc1ccc(-c2nc3c(Br)c(N)c(Br)cc3o2)cc1` [4,6-bis(bromanyl)-2-(4-methoxyphenyl)-1,3-benzoxazol-5-amine], the EC50 came out at 693 nM.
In turn, `Nc1c(C(=O)NCc2ccco2)nnn1-c1ccccc1` [5-amino-N-(2-furanylmethyl)-1-phenyl-4-triazolecarboxamide] came in with an EC50 greater than 3670 nM.
On to `Cc1ccc(C(=O)Nc2ncc(Cc3ccc(F)cc3)s2)o1` [5-Methyl-furan-2-carboxylic acid [5-(4-fluoro-benzyl)-thiazol-2-yl]-amide], for which the EC50 was greater than 407 nM.
The same measure, in the same setting: to `COc1cc(N2CCCC2)c(OC)cc1C=c1sc2nc3ccccc3n2c1=O` [2-(2,5-dimethoxy-4-pyrrolidino-benzylidene)thiazolo[3,2-a]benzimidazol-1-one] belongs 11000 nM; to `O=C(CSc1nc2ccccc2o1)Nc1nc2ccccc2s1` [2-(Benzooxazol-2-ylsulfanyl)-N-benzothiazol-2-yl-acetamide], greater than 11000 nM; to `O=c1[nH]c2ccccc2nc1-c1cccs1` [SMR000068248], 3720 nM.
Consider `Cc1ccc(C2C(C(=O)c3cnn(-c4ccccc4)c3C)C(=O)C(=O)N2CCN(C)C)o1` (stereo unspecified) [(4E)-1-[2-(dimethylamino)ethyl]-4-[hydroxy-(5-methyl-1-phenyl-4-pyrazolyl)methylidene]-5-(5-methyl-2-furanyl)pyrrolidine-2,3-dione], for which the response was half-maximal at 4130 nM (EC50).
For the molecule `COc1ccc(-c2cc(C(=O)N3CCCCC3)no2)cc1OC` [1-{[5-(3,4-dimethoxyphenyl)isoxazol-3-yl]carbonyl}piperidine], the EC50 turned out to be 3920 nM.
The same measure, in the same setting: then `O=C(Nc1ccc(NC(=O)c2cccs2)cn1)c1ccco1` [Furan-2-carboxylic acid {5-[(thiophene-2-carbonyl)-amino]-pyridin-2-yl}-amide], with 2710 nM; and `O=C(Nc1nnc(C2CCCCC2)s1)c1ccco1` [MLS000039439], with 596 nM.
The same measure, in the same setting: to `CC1(C)Cc2c(sc(NC(=O)c3ccc(Br)o3)c2C#N)CO1` [5-bromanyl-N-(3-cyano-5,5-dimethyl-4,7-dihydrothieno[2,3-c]pyran-2-yl)furan-2-carboxamide] belongs 752 nM.
On the same count and under the same terms, then `O=C1CCCC(=O)C1=CNc1ccc(O)cc1` [2-[(4-hydroxyanilino)methylidene]cyclohexane-1,3-dione], with greater than 99000 nM; and `Cc1cc2n(n1)C(c1ccc(N(C)C)cc1)Nc1ccccc1-2` (stereo unspecified) [SMR000015202], with 10800 nM; and `O=C(Nc1cccc(-c2nnc(-c3ccccc3)o2)c1)c1ccc(Br)o1` [5-bromanyl-N-[3-(5-phenyl-1,3,4-oxadiazol-2-yl)phenyl]furan-2-carboxamide], with 8560 nM.
Molecule `Nc1nc2c(s1)CCc1c-2cnn1-c1ccccc1` [MLS000085948] registered an EC50 of 551 nM.
Molecule `COc1ccc(CNc2ccc(C(=O)O)cc2)cc1` [4-(p-anisylamino)benzoic acid] yielded an EC50 of 1500 nM.
Consider `O=C(Cc1ccccc1)n1nc(-c2ccccc2)nc1NCc1ccco1` [1-[5-(2-furanylmethylamino)-3-phenyl-1,2,4-triazol-1-yl]-2-phenylethanone], for which the EC50 is greater than 11000 nM.
In turn, `O=c1c2ccccc2nnn1CSc1nnc(COc2ccc(Cl)cc2)n1Cc1ccco1` [3-[[5-[(4-chloranylphenoxy)methyl]-4-(furan-2-ylmethyl)-1,2,4-triazol-3-yl]sulfanylmethyl]-1,2,3-benzotriazin-4-one] gave an EC50 of 3690 nM.
